Data on one compound can be found in US20130217094A1, “ENZYME SOLUTION FOR SEPARATING CELL, METHOD FOR SEPARATING CELL AND METHOD FOR SEPARATING PANCREATIC ISLET” (BIO LINK, INCORPORATED, priority 2010, published 2013).

Assay [1] has as its system pancreatic islets. Description: Secretion of insulin by glucose stimulation (ELISA). Type of assay: cell-based, rats. The note with it: 60 minutes, islets 150 to 200 μm, n=10. The method, then: As a medium, RPMI1640 medium containing 3.3 mM glucose and 0.1% fetal bovine serum was used, and conditions were set at 37° C. and in 5% CO2/95% air condition. In measurement, the Transwell medium on which pancreatic islets were placed was subjected to RPMI1640 medium containing 3.3 mM glucose and 0.1% fetal bovine serum, and pre-cultured for 60 minutes. Note here that the culture was carried out at 37° C. and in 5% CO2/95% air conditions. Thereafter, the Transwell medium on which pancreatic islets were placed was moved to a new well containing the similar medium and stood still for 60 minutes (sample A). […] Thereafter, the media of the sample A and the sample B were recovered, and insulin contained in the medium was measured by using an insulin measurement kit (manufactured by Morinaga Biochemical Lab, Inc.) using the ELISA method. Then, the value obtained by dividing the insulin level of the sample B by the insulin level of the sample A was defined as an insulin secretion stimulation index.
A general note: In an ELISA, binding on a coated surface is turned into a signal by an enzyme label.

Assay [2] deals with pancreatic islets. Description: Evaluation of damages in pancreatic islets (AO/PI staining, viability). The note with it: AO/PI fluorescence area, n=8 in each group; islets separated in Example 1. Type of assay: cell-based, rats. An excerpt: The degree of damage of pancreatic islets can be evaluated based on whether or not a barrier function of the cell membrane can be maintained. Then, the pancreatic islets of each group separated in Example 1 (n=8 in each group) was stained with acridine orange (AO) and propidium iodide as fluorescent dye. Note here that AO is taken in cells even in living cells to emit green fluorescence, and PI is taken into cells by failure of the barrier function of the cell membrane and bound to DNA to emit red fluorescence. Specifically, AO (10 μM) and PI (15 μM) were dissolved in PBS to form a solution, the pancreatic islets were incubated in the resultant solution for 10 minutes, and then the pancreatic islets were observed under fluorescence microscope. Then, by using image analysis software (Image J free software), an area of the green fluorescence and an area of the red fluorescence were obtained, the rate (%) of the area of green fluorescence excluding the area of the red fluorescence was defined as the viability (%) of pancreatic islet.

In assay [3] the test system is pancreatic islets. In words: Separation of pancreatic islets from rats with the enzyme solution: yield of pancreatic islets. Type of assay: cell-based. Conditions: per rat, n=8; collagenase (2 mg/mL) Hanks' solution infused via pancreatic duct, 37° C. 32 minutes; DIDS 200 μM or NaCl substituted with sodium glutamate. On the procedure:
The rats were grouped into three groups (a control group, a DIDS group, a low Cl^− group) each including 8 rats, then abdominal section was carried out to each rat under ether anesthesia, the choledoch duct was clamped in the vicinity of the entrance of the duodenum, and cannula was inserted. Then, 12 mL of Hanks' solution (NaCl: […], KCl: 400 mg/mL, MgSG4: 48.8 mg/mL, MgCl2: 46.8 mg/mL, CaCl2: 140 mg/mL, KH2PO4: 60 mg/mL, Na HPO4: 47.9 mg/mL and glucose: 1000 mg/mL) containing collagenase (2 mg/mL) was infused into the pancreas via the pancreatic duct from the cannula. However, to the DIDS group, DIDS (200 μM) as a chloride ion channel inhibitor was further added, and to the low Cl^− group, sodium chloride in the Hanks' solution was substituted with sodium glutamate.
The pancreas that had been swollen by infusion of the solution was extracted, and incubated at 37° C. for 32 minutes. Thereafter, degraded tissue was placed into 50 mL conical tube, and the Hanks' solution at 4° C. was added so as to stop the enzyme reaction. The tube was gently shaken, and subjected to centrifugation at 320G for 10 to 15 seconds. […]
For the yield of the pancreatic islets, IEQ (islet equivalents; the number of pancreatic islets based on the diameter of 150 μm) as a unit is used. […] Note here that the number of pancreatic islets whose diameter was less than 50 μm was not counted.

Assay [4] relates to diabetes model SCID mice. Description: Transplantation of pancreatic islets to diabetes model SCID mice. Type of assay: in vivo. The method, then: Note here that in the following Examples, rats at an age of 9 to 10 weeks were used as a donor of the pancreatic islets. Furthermore, as a recipient, SCID mice at an age of 9 to 10 weeks were used. Streptozocin (STZ; 250 mg/kg) was intraperitoneally administered to SCID mice under anesthesia of diethyl ether, and β cells were destroyed to induce diabetes. Mice whose casual blood glucose level exceeds 350 mg/dL for two continuous days were regarded as diabetes mice, and they were used as the recipients. […] For the screening of the diabetes model SCID mice, mice whose casual blood glucose level exceeds 350 mg/dL for two continuous days by collection of blood were employed. In transplantation, the mice were subjected to ether anesthesia, and pancreatic islet was infused into the renicapsule of the left kidney by using a 250 μL pipette tip. After transplantation, the blood was recovered every day for the first seven days, and the blood glucose level was measured, and thereafter, the blood glucose level was measured three times a week. Then, on Day 30 after transplantation, the pancreatic islet-transplanted kidney was extracted. Note here that the definition of cure of diabetes was a case in which the blood glucose level was less than 150 mg/dL for three continuous days and the blood glucose level after nephrectomy was increased to more than 250 mg/dL.

Each structure is given as a SMILES string.

Turning to `O=S(=O)([O-])c1cc(N=C=S)ccc1C=Cc1ccc(N=C=S)cc1S(=O)(=O)[O-].[Na+].[Na+]` [DIDS, 4,4′-di(isothiocyano)stilbene-2,2′-disodium disulfonate], the “insulin secretion sample A (3.3 mM glucose)” value in assay [1] (3.3 mM glucose) turned out to be 1.94 ± 0.44 μU. In addition, the “insulin secretion sample B (20 mM glucose)” value in assay [1] (20 mM glucose) was determined as 19.0 ± 4.46 μU. Further, the “viability of the pancreatic islets” value in assay [2] was determined as 84.9±4.9%. The “yield of the pancreatic islets” value in assay [3] is listed as 1969±244 IEQ. Besides, the “blood glucose level on Day 1 to 2 after the transplantation” value in assay [4] (200 IEQ islets transplanted to renicapsule of left kidney, STZ diabetes SCID mice, n=5) was 78.7 ± 52.7 mg/dL. In assay [4] (200 IEQ islets transplanted, n=5 in each group), the “mice that came to have a normal blood glucose (<150 mg/dL)” value is recorded as “all of five mice”.
